In one test the test system is LFCl2A. Nature of the test: In vitro cytotoxicity against LFCL2A cells from rat hepatocarcinoma. Format: functional, cell-based.
In the next test the test system is Raji. Nature of the test: In vitro cytotoxicity against Raji cells from human lymphoma. It is filed as functional, cell-based.
The mark [1] stands for this setting: Rattus norvegicus, LFCl2A, read-out: IC50.

Where “and” joins values, the source holds several entries; their conditions need not be identical. Identical values can stand only once.

As to `C[C@@H]1O[C@@H](CC2=CCCCC2)C=C[C@@]12CO2`, the IC50 in the test on LFCl2A (setting [1]) is 155 µM; in the test with LFCl2A (lfcl2a) it was 34.3 µg/mL.

`CC/C=C\C/C=C\C/C=C\C/C=C\C/C=C\C/C=C\CCC(=O)OC[C@H]1O[C@H](C2CCCC=C2C)C=C[C@@]12CO2` (stereo in doubt; 15) showed a concentration for half-maximal inhibition (IC50) in the test with Raji (raji) of 62 µM. Same read-out and setting: as for `CCCCC/C=C\C/C=C\C/C=C\C/C=C\CCCC(=O)OC[C@H]1O[C@H](C2CCCC=C2C)C=C[C@@]12CO2` (stereo in doubt; 18), the figure is 147 µM.

`O=C(O)CCCc1ccc(N(CCCl)CCCl)cc1` [CHLORAMBUCIL] gave an IC50 with Raji (Homo sapiens, Raji) of 298 µM.

As for `C[C@@H]1O[C@@H](CC2=CCCCC2)C=C[C@]12CO2`, the results for the IC50 in the test with LFCl2A (setting [1]) and with LFCl2A (lfcl2a) were 128 µM and 28.3 µg/mL, respectively. `CCCCC/C=C\C/C=C\C/C=C\C/C=C\CCCC(=O)OC[C@H]1O[C@H](C2CCCC=C2C)C=C[C@@]12CO2` (stereo in doubt; 17) had an IC50 with Raji (raji) of 66 µM. For `CC1=CCCCC1[C@@H]1C=C[C@@]2(CO2)[C@@H](CO)O1` (stereo not given in full), the half-maximal inhibitory concentration (IC50) in the test with Raji (Homo sapiens, Raji) was 255 µM and 60.3 µg/mL. Still for that read-out and setting: for `CC/C=C\C/C=C\C/C=C\C/C=C\C/C=C\C/C=C\CCC(=O)OC[C@H]1O[C@H](C2CCCC=C2C)C=C[C@@]12CO2` (stereo in doubt; 16) the value was 58 µM and 0.106 µg/mL.

The values above are taken from ChEMBL document CHEMBL1159168, “Unsaturated epoxy-C-glycosides. A new class of antitumor compounds with DNA cleavage properties” (Bioorg Med Chem Lett, 1994).
